Results reported in ChEMBL document CHEMBL1201862, “PubChem BioAssay data set” (2004).
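In this assay, cells in 96-well plates receive the compound at five concentrations for 48 hours. Endpoints are linearly interpolated between the surrounding concentrations. The concentration for 50% growth inhibition is given as GI50.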 Activity calls are given as the source filed them. Cut-off read from the data, not from the text of the source: active = GI50 up to about 1.1 µM and inactive = higher.

Tests used:
Assay in all cases: NCI tumour cell line growth inhibition, 48 h
CAKI-1 = test system: CAKI-1
RXF 393 = test system: RXF 393
COLO 205 = test system: COLO 205
A498 = test system: A498
SN12C = test system: SN12C
786-0 = test system: 786-0
HT-29 = test system: HT-29
BT-549 = test system: BT-549
NCI-H226 = test system: NCI-H226
UACC-257 = test system: UACC-257
DU-145 = test system: DU-145
HOP-92 = test system: HOP-92
NCI-H23 = test system: NCI-H23
SR = test system: SR
A549 = test system: A549
SK-OV-3 = test system: SK-OV-3
M14 = test system: M14
HOP-62 = test system: HOP-62
Malme-3M = test system: Malme-3M
OVCAR-8 = test system: OVCAR-8
ACHN = test system: ACHN
PC-3 = test system: PC-3
NCI-H460 = test system: NCI-H460
OVCAR-3 = test system: OVCAR-3
RPMI-8226 = test system: RPMI-8226
HCC 2998 = test system: HCC 2998
SK-MEL-2 = test system: SK-MEL-2
NCI/ADR-RES = test system: NCI/ADR-RES
SW-620 = test system: SW-620
SF-539 = test system: SF-539
U-251 = test system: U-251
T47D = test system: T47D
KM12 = test system: KM12
IGROV-1 = test system: IGROV-1
MDA-N = test system: MDA-N
CCRF-CEM = test system: CCRF-CEM
MOLT-4 = test system: MOLT-4
TK-10 = test system: TK-10
MCF7 = test system: MCF7
SK-MEL-28 = test system: SK-MEL-28
SK-MEL-5 = test system: SK-MEL-5
SNB-75 = test system: SNB-75
HCT-116 = test system: HCT-116
MDA-MB-231 = test system: MDA-MB-231
SF-268 = test system: SF-268
K562 = test system: K562
UO-31 = test system: UO-31
UACC-62 = test system: UACC-62
OVCAR-4 = test system: OVCAR-4
HCT-15 = test system: HCT-15
MDA-MB-435 = test system: MDA-MB-435
SF-295 = test system: SF-295
OVCAR-5 = test system: OVCAR-5
NCI-H522 = test system: NCI-H522
LOX IMVI = test system: LOX IMVI
EKVX = test system: EKVX
HL-60 = test system: HL-60
SNB-19 = test system: SNB-19

Cn1cnnc1SC(F)(F)c1nc2ccccc2o1
GI50 (CAKI-1): > 100 µM (inactive) | GI50 (RXF 393): > 100 µM (inactive) | GI50 (COLO 205): > 100 µM (inactive) | GI50 (A498): > 100 µM (inactive) | GI50 (SN12C): > 100 µM (inactive) | GI50 (786-0): > 100 µM (inactive) | GI50 (HT-29): > 100 µM (inactive) | GI50 (BT-549): > 100 µM (inactive) | GI50 (NCI-H226): > 100 µM (inactive) | GI50 (UACC-257): > 100 µM (inactive) | GI50 (DU-145): > 100 µM (inactive) | GI50 (HOP-92): > 100 µM (inactive) | GI50 (NCI-H23): > 100 µM (inactive) | GI50 (SR): > 100 µM (inactive) | GI50 (A549): > 100 µM (inactive) | GI50 (SK-OV-3): > 100 µM (inactive) | GI50 (M14): > 100 µM (inactive) | GI50 (HOP-62): > 100 µM (inactive) | GI50 (Malme-3M): > 100 µM (inactive) | GI50 (OVCAR-8): > 100 µM (inactive) | GI50 (ACHN): > 100 µM (inactive) | GI50 (PC-3): > 100 µM (inactive) | GI50 (NCI-H460): > 100 µM (inactive) | GI50 (OVCAR-3): > 100 µM (inactive) | GI50 (RPMI-8226): > 100 µM (inactive) | GI50 (HCC 2998): > 100 µM (inactive) | GI50 (SK-MEL-2): > 100 µM (inactive) | GI50 (NCI/ADR-RES): > 100 µM (inactive) | GI50 (SW-620): > 100 µM (inactive) | GI50 (SF-539): > 100 µM (inactive) | GI50 (U-251): > 100 µM (inactive) | GI50 (T47D): > 100 µM (inactive) | GI50 (KM12): > 100 µM (inactive) | GI50 (IGROV-1): > 100 µM (inactive) | GI50 (MDA-N): > 100 µM (inactive) | GI50 (CCRF-CEM): > 100 µM (inactive) | GI50 (MOLT-4): > 100 µM (inactive) | GI50 (TK-10): > 100 µM (inactive) | GI50 (MCF7): > 100 µM (inactive) | GI50 (SK-MEL-28): > 100 µM (inactive) | GI50 (SK-MEL-5): > 100 µM (inactive) | GI50 (SNB-75): > 100 µM (inactive) | GI50 (HCT-116): > 100 µM (inactive) | GI50 (MDA-MB-231): > 100 µM (inactive) | GI50 (SF-268): > 100 µM (inactive) | GI50 (K562): > 100 µM (inactive) | GI50 (UO-31): > 100 µM (inactive) | GI50 (UACC-62): > 100 µM (inactive) | GI50 (OVCAR-4): > 100 µM (inactive) | GI50 (HCT-15): > 100 µM | GI50 (MDA-MB-435): > 100 µM (inactive) | GI50 (SF-295): > 100 µM (inactive) | GI50 (OVCAR-5): > 100 µM (inactive) | GI50 (NCI-H522): > 100 µM (inactive)

Clc1ccccc1-c1nnc2c(-c3ccccc3)nc3ccccc3n12
GI50 (RXF 393): 13 µM (inactive) | GI50 (COLO 205): > 100 µM (inactive) | GI50 (A498): > 100 µM (inactive) | GI50 (SN12C): > 100 µM (inactive) | GI50 (786-0): 40.9 µM (inactive) | GI50 (HT-29): 47.3 µM (inactive) | GI50 (BT-549): > 100 µM (inactive) | GI50 (NCI-H226): > 100 µM (inactive) | GI50 (UACC-257): > 100 µM (inactive) | GI50 (DU-145): > 100 µM (inactive) | GI50 (HOP-92): > 100 µM (inactive) | GI50 (NCI-H23): > 100 µM (inactive) | GI50 (SR): 45.2 µM (inactive) | GI50 (A549): > 100 µM (inactive) | GI50 (SK-OV-3): > 100 µM (inactive) | GI50 (LOX IMVI): > 100 µM (inactive) | GI50 (M14): > 100 µM (inactive) | GI50 (EKVX): > 100 µM (inactive) | GI50 (HOP-62): 69.3 µM (inactive) | GI50 (Malme-3M): 61.7 µM (inactive) | GI50 (ACHN): > 100 µM (inactive) | GI50 (HL-60): 54.5 µM (inactive) | GI50 (PC-3): > 100 µM (inactive) | GI50 (NCI-H460): > 100 µM (inactive) | GI50 (OVCAR-3): > 100 µM (inactive) | GI50 (RPMI-8226): > 100 µM (inactive) | GI50 (HCC 2998): > 100 µM (inactive) | GI50 (SK-MEL-2): > 100 µM (inactive) | GI50 (NCI/ADR-RES): > 100 µM (inactive) | GI50 (SW-620): > 100 µM (inactive) | GI50 (SF-539): > 100 µM (inactive) | GI50 (U-251): > 100 µM (inactive) | GI50 (T47D): 5.93 µM (inactive) | GI50 (KM12): > 100 µM (inactive) | GI50 (IGROV-1): > 100 µM (inactive) | GI50 (MDA-N): 96.6 µM (inactive) | GI50 (CCRF-CEM): 26 µM (inactive) | GI50 (MOLT-4): 42.6 µM (inactive) | GI50 (TK-10): > 100 µM (inactive) | GI50 (MCF7): 92 µM (inactive) | GI50 (SK-MEL-28): > 100 µM (inactive) | GI50 (SK-MEL-5): > 100 µM (inactive) | GI50 (HCT-116): > 100 µM (inactive) | GI50 (SNB-19): > 100 µM (inactive) | GI50 (MDA-MB-231): > 100 µM (inactive) | GI50 (SF-268): > 100 µM (inactive) | GI50 (K562): > 100 µM (inactive) | GI50 (UO-31): 2.07 µM (inactive) | GI50 (UACC-62): > 100 µM (inactive) | GI50 (OVCAR-4): > 100 µM (inactive) | GI50 (HCT-15): > 100 µM | GI50 (MDA-MB-435): 52.7 µM (inactive) | GI50 (OVCAR-5): > 100 µM (inactive)
